Molecules are shown by their SMILES.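 Briefly, cells in 96-well plates were exposed to five compound concentrations for 48 h, and endpoints were estimated by linear interpolation. GI50 marks 50% less growth. TGI: total growth inhibition.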 Where only a bound is given, the exact number is not on record here.

Assay in all cases: NCI tumour cell line growth inhibition, 48 h
Experiment [1] has as its system 786-0 renal.
Experiment [2] has as its system CAKI-1 renal.
The subject of experiment [3] is CCRF-CEM leukemia.
The subject of experiment [4] is HOP-62 NSCLC.
Experiment [5] deals with PC-3 prostate.
Experiment [6] relates to RXF 393 renal.
Experiment [7] has as its system SF-539 CNS.
The test system of experiment [8] is SN12C renal.
Experiment [9] deals with SNB-19 CNS.
Experiment [10] deals with SW-620 colon.

Take `Cc1cc(-c2nc(C(=O)Nc3cc4oc(N5CCOCC5)nc4nc3N3CC[C@@H](O)C3)co2)ccn1`: the GI50 in [1] is 68.7 µM; in experiment [2], 17.1 µM; in experiment [3] it was 29.4 µM; in experiment [4], 30.6 µM; in [5] it was 26.9 µM; in [6], 17.9 µM. For the same molecule, the GI50 was 24 µM in [7], 26 µM in experiment [8], 78.8 µM in [9] and 28.4 µM in [10]. In addition, the TGI was > 100 µM in experiment [1]; 71.6 µM in [2]; > 100 µM in [3]; > 100 µM in experiment [4]; > 100 µM in experiment [5]; > 100 µM in experiment [6]. Besides, the TGI in experiment [7], in experiment [8], in [9] and in [10] was > 100 µM each time.
In the case of `C=CCOc1ccc2c(C)cc(=O)oc2c1C`, the TGI in experiment [1] was > 100 µM; in experiment [2] it was > 100 µM; in experiment [3], > 100 µM; in [4] it was > 100 µM; in experiment [5] it was > 100 µM; in [6] it was 63.9 µM. The TGI in [7], in [8], in experiment [9] and in [10] was > 100 µM each time.
With `NC(N)=NS(=O)(=O)c1ccc(Nc2c3ccccc3nc3c(C(=O)NCCO)cccc23)cc1`, the GI50 is 21 µM in [1]; 22.8 µM in experiment [2]; 19.9 µM in experiment [3]; 20 µM in experiment [4]; 22.2 µM in [5]; 19.6 µM in experiment [6]. The GI50 in [7] is 29.5 µM; in experiment [8], 26.7 µM; in experiment [9], 26.6 µM; in [10], 17.2 µM. Further, in [3], the TGI was > 100 µM.
In the case of `COc1ccc2c(c1)sc1nc(-c3ccccc3)c(-c3cccc4ccccc34)n12`, the GI50 in [1] is 0.848 µM; in experiment [2] it was 0.792 µM; in [3], 0.45 µM; in experiment [4], 0.538 µM; in experiment [5] it was 0.5 µM; in [6] it was 0.249 µM. Besides, the GI50 in experiment [7] is 0.385 µM; in [8] it was 1.02 µM; in experiment [9], 0.589 µM; in [10], 0.346 µM. In addition, the TGI was > 100 µM in [1]; > 100 µM in experiment [2]; > 100 µM in experiment [3]; > 100 µM in experiment [5]; 1.29 µM in experiment [6]; > 100 µM in experiment [8]. For the same molecule, the TGI in experiment [9] and in experiment [10] was > 100 µM throughout.
For `Fc1ccc(NC(=S)SCc2ccc3c(c2)OCO3)cc1F`, the TGI in experiment [1] is 72.4 µM; in experiment [2], > 100 µM; in experiment [3] it was 77.3 µM; in experiment [4], > 100 µM; in [5], 76.6 µM; in [6] it was 32.2 µM. In addition, the TGI in experiment [7] was 53.5 µM; in [8] it was 39.4 µM; in experiment [9], 39.3 µM; in [10] it was > 100 µM.
Regarding `Cc1ccc(CN2CCC(C(=O)Nc3ccc(-c4cc5ccccc5[nH]4)cc3)CC2)o1`, the GI50 in [1] is 98.9 µM; in [2] it was > 100 µM; in experiment [3] it was > 100 µM; in [4], 55.8 µM; in [5] it was > 100 µM; in [6], > 100 µM. The GI50 in [7], in experiment [8], in [9] and in experiment [10] was > 100 µM each time. For the same molecule, the TGI in experiment [1], in experiment [2], in [3], in [4], in experiment [5] and in [6] was > 100 µM throughout. The TGI in experiment [7], in [8], in [9] and in [10] was > 100 µM each time.
Take `O=C1/C(=C/c2ccc(O)c(O)c2)CCC/C1=C\c1ccc(O)c(O)c1`: the TGI in [1] was 15.5 µM; in [2], 12.5 µM; in [3] it was > 25.4 µM; in experiment [4], 14.5 µM; in experiment [5], 19 µM; in experiment [6] it was 9.5 µM. In addition, the TGI in experiment [7] came to 8.99 µM; in experiment [8], 24.9 µM; in [9], 29.1 µM; in [10], 23.3 µM.
In the case of `CN(C)c1ccc(/C=C\C2=[N+](C)c3ccccc3C2(C)C)cc1`, the GI50 in experiment [1] was 2.48 µM; in [2], 1.82 µM; in experiment [3] it was 0.453 µM; in experiment [4], 0.842 µM; in experiment [5] it was 0.195 µM; in experiment [6], 1.45 µM. Moreover, the GI50 in experiment [7] is 1.12 µM; in experiment [8], 0.351 µM; in experiment [9], 0.775 µM; in experiment [10], 0.399 µM. In addition, the TGI in experiment [1] was > 41.2 µM; in experiment [2] it was 20.6 µM; in experiment [3], > 100 µM; in experiment [4], 21.6 µM; in experiment [6], 27.7 µM; in [7] it was 16.7 µM. For the same molecule, the results for the TGI in [8], in [9] and in [10] were 14.6 µM, 38.1 µM and 19.1 µM, respectively.
For `Clc1ccccc1C(SCc1ccccc1)SCc1ccccc1`, the TGI in experiment [1], in experiment [2], in experiment [3], in experiment [4], in [5] and in experiment [6] was > 100 µM each time. Moreover, the TGI in experiment [7], in [8], in [9] and in experiment [10] was > 100 µM throughout.

These data come from PubChem BioAssay (NCI).
